Measured values published in PubChem BioAssay (NCI).
Several values for one entry are separate records, joined by “and”; a condition that tells them apart may be missing. Identical values can stand only once.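 In this assay, cells in 96-well plates receive the compound at five concentrations for 48 hours. Endpoints are linearly interpolated between the surrounding concentrations. GI50 = concentration required for 50% inhibition of growth. TGI denotes the concentration required for complete inhibition of growth.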

Columns and labels:
Test in all cases: NCI anticancer screen, dose series, 48 h
[1] = test system: COLO 205 colon
[2] = test system: K-562 leukemia
[3] = test system: NCI-H460 lung
[4] = test system: OVCAR-4 ovarian
[5] = test system: PC-3 prostate
[6] = test system: RPMI-8226 leukemia
[7] = test system: UACC-257 melanoma
[8] = test system: UO-31 renal

COc1cccc(C2CC(=O)Nc3cc4c(cc32)CCC4)c1OC (stereo not given)
GI50 [1]: 3.13 µM | TGI [1]: 8.48 µM | GI50 [2]: 3.07 µM | TGI [2]: 37.5 µM | GI50 [3]: 3.16 µM | TGI [3]: 12.3 µM | GI50 [4]: 12.3 µM | TGI [4]: 98.2 µM | GI50 [5]: 3.41 µM | TGI [5]: 47.3 µM | GI50 [6]: 2.63 µM | TGI [6]: 14.6 µM | GI50 [7]: 1.11 µM | TGI [7]: 11.2 µM | GI50 [8]: 7.18 µM | TGI [8]: 38.7 µM

Cc1cc(C)c2nccc(NCCCN(C)C)c2c1[N+](=O)[O-]
TGI [1]: 28.5 µM | TGI [2]: > 100 µM | TGI [3]: > 100 µM | TGI [4]: 30.2 µM | TGI [5]: > 100 µM | TGI [6]: > 100 µM | TGI [7]: 33.7 µM | TGI [8]: 42.8 µM

CC(=O)OC1Oc2cc(C)c(C)cc2-c2oc(=O)c(-c3ccccc3)cc21 (stereo not given)
GI50 [1]: 0.385 µM | TGI [1]: 3.64 µM | GI50 [2]: 0.178 µM | TGI [2]: > 100 µM | GI50 [3]: 0.338 µM | TGI [3]: 14.2 µM | GI50 [4]: 3.92 µM | TGI [4]: > 100 µM | GI50 [5]: 0.435 µM | TGI [5]: > 100 µM | GI50 [6]: 0.287 µM | TGI [6]: 0.969 µM | GI50 [7]: 0.537 µM | TGI [7]: 39 µM | GI50 [8]: 0.499 µM | TGI [8]: 35.9 µM

Cc1cc(C(=O)Nc2cc(Nc3ncccc3-c3ncnc4nc[nH]c34)ccc2F)cc(C(C)(C)C#N)c1
GI50 [1]: 0.0526 µM | TGI [1]: > 100 µM | GI50 [2]: 0.306 µM | TGI [2]: > 100 µM | GI50 [3]: 1.98 µM | TGI [3]: > 100 µM | GI50 [4]: 5.33 µM | TGI [4]: > 100 µM | GI50 [5]: 7.13 µM | TGI [5]: > 100 µM | GI50 [6]: 2.01 µM | TGI [6]: 53.5 µM | GI50 [7]: 0.0867 µM | TGI [7]: > 100 µM | GI50 [8]: 0.239 µM | TGI [8]: > 100 µM

CCCC(=O)Nc1cn(COC)c(C(=O)N2C[C@H]3C[C@@]34C2=CC(=O)c2[nH]cc(C)c24)n1
GI50 [1]: 4.41 µM | TGI [1]: 15.9 µM and 32.4 µM | GI50 [2]: 7.41 µM | TGI [2]: 50 µM and > 100 µM | TGI [3]: 15.9 µM and 28.7 µM | TGI [4]: 30 µM and 36.5 µM | TGI [5]: 50 µM and > 100 µM | GI50 [6]: 3.21 µM | TGI [6]: 22.8 µM and > 100 µM | GI50 [7]: 10.5 µM | TGI [7]: 18.7 µM and 83.3 µM | GI50 [8]: 3.47 µM | TGI [8]: 28.1 µM and 73.1 µM

COc1ccc(-c2nn(-c3cccc(Cl)c3)cc2-c2cc(-c3cccs3)no2)cc1
GI50 [1]: 3.21 µM | TGI [1]: 7.24 µM | GI50 [2]: 3.43 µM | TGI [2]: > 100 µM | GI50 [3]: 3.42 µM | TGI [3]: 16.6 µM | GI50 [4]: 4.48 µM | TGI [4]: 36.4 µM | GI50 [5]: 3.2 µM | TGI [5]: 36.9 µM | GI50 [6]: 5.33 µM | TGI [6]: 61.9 µM | GI50 [7]: 3.07 µM | TGI [7]: 15.1 µM | GI50 [8]: 2.56 µM | TGI [8]: 11.8 µM

Cc1cc(Nc2cc(N3CCN(C)CC3)nc(C#Cc3ccccc3)n2)n[nH]1
GI50 [1]: 1.69 µM | TGI [1]: 4.62 µM | GI50 [2]: 3.79 µM | TGI [2]: 24.4 µM | GI50 [3]: 2.07 µM | TGI [3]: 13 µM | GI50 [4]: 1.7 µM | TGI [4]: 13.3 µM | GI50 [5]: 3.17 µM | TGI [5]: 25.4 µM | GI50 [6]: 12.6 µM | TGI [6]: 59.3 µM | GI50 [7]: 3.58 µM | TGI [7]: 15.9 µM | GI50 [8]: 1.07 µM | TGI [8]: 7.28 µM

N=C(N)SCC(=O)O
TGI [1]: > 100 µM | TGI [2]: > 100 µM | TGI [3]: > 100 µM | TGI [4]: > 100 µM | TGI [5]: > 100 µM | TGI [6]: > 100 µM | TGI [7]: > 100 µM | TGI [8]: > 100 µM

CN1CCN(CCCOc2ccc3ncnc(Nc4ccc(Oc5cccc(F)c5)c(Cl)c4)c3c2)CC1
GI50 [1]: 1.86 µM | TGI [1]: 3.64 µM | GI50 [2]: 1.19 µM | TGI [2]: 4.34 µM | GI50 [3]: 1.77 µM | TGI [3]: 3.3 µM | GI50 [4]: 1.62 µM | TGI [4]: 3.6 µM | GI50 [5]: 1.68 µM | TGI [5]: 3.45 µM | GI50 [6]: 1.58 µM | TGI [6]: 4.86 µM | GI50 [7]: 1.96 µM | TGI [7]: 4.06 µM | GI50 [8]: 1.11 µM | TGI [8]: 2.3 µM

COc1cc(/C=C2\C(=O)Nc3ccc(Br)cc32)cc(OC)c1OC
GI50 [1]: 8.18 µM | TGI [1]: > 100 µM | GI50 [2]: 1.11 µM | TGI [2]: > 100 µM | GI50 [3]: 8.76 µM | TGI [3]: > 100 µM | GI50 [4]: > 29 µM | TGI [4]: > 100 µM | GI50 [5]: 3.92 µM | TGI [5]: > 100 µM | GI50 [6]: 1.31 µM | TGI [6]: > 41.8 µM | GI50 [7]: > 50.7 µM | TGI [7]: > 100 µM | GI50 [8]: 6.73 µM | TGI [8]: > 100 µM

Cc1cc2c(-c3nc4ccccn4c3NC34CC5CC(CC(C5)C3)C4)c(O)c(O)cc2c(O)c1-c1c(C)cc2c(-c3nc4ccccn4c3NC34CC5CC(CC(C5)C3)C4)c(O)c(O)cc2c1O
GI50 [1]: 0.626 µM | TGI [1]: 4.77 µM | GI50 [2]: 0.152 µM | TGI [2]: 4.93 µM | GI50 [3]: 0.0903 µM | TGI [3]: 2.1 µM | GI50 [4]: 0.728 µM | TGI [4]: > 25 µM | GI50 [5]: 0.231 µM | TGI [5]: 11.9 µM | GI50 [6]: 0.355 µM | TGI [6]: > 25 µM | GI50 [7]: 1 µM | TGI [7]: > 25 µM | GI50 [8]: 0.657 µM | TGI [8]: 4.16 µM

Fc1ccc(-c2cc(-c3cn[nH]c3-c3ccccn3)ccn2)cc1
GI50 [1]: > 25 µM | TGI [1]: > 25 µM | GI50 [2]: > 25 µM | TGI [2]: > 25 µM | GI50 [3]: 24.7 µM | TGI [3]: > 25 µM | GI50 [4]: > 25 µM | TGI [4]: > 25 µM | GI50 [5]: > 25 µM | TGI [5]: > 25 µM | GI50 [6]: > 25 µM | TGI [6]: > 25 µM | GI50 [7]: > 25 µM | TGI [7]: > 25 µM | GI50 [8]: > 25 µM | TGI [8]: > 25 µM

NC(=O)c1c(NC(=O)c2cccc(C(F)(F)F)c2)sc2c1CCC(=O)C2
GI50 [1]: 0.437 µM | TGI [1]: 1.8 µM | GI50 [2]: 0.124 µM | GI50 [3]: 0.512 µM | TGI [3]: > 100 µM | GI50 [4]: 0.292 µM | TGI [4]: 1.25 µM | GI50 [5]: 0.218 µM | TGI [5]: 2.1 µM | GI50 [6]: 0.127 µM | TGI [6]: 0.745 µM | GI50 [7]: 2.17 µM | TGI [7]: 6.38 µM | GI50 [8]: 0.291 µM | TGI [8]: 1.19 µM

COc1ccc2nc3cc(Cl)ccc3c(Nc3ccc(O)c(CN4CCCC4)c3)c2c1
GI50 [1]: 1.83 µM | TGI [1]: 3.48 µM | GI50 [2]: 1.99 µM | TGI [2]: 6.44 µM | GI50 [3]: 2.46 µM | TGI [3]: 6.15 µM | GI50 [4]: 2.7 µM | TGI [4]: 8.24 µM | GI50 [5]: 3.28 µM | TGI [5]: 11 µM | GI50 [6]: 2.55 µM | TGI [6]: 6.41 µM | GI50 [7]: 2.15 µM | TGI [7]: 3.83 µM | GI50 [8]: 1.83 µM | TGI [8]: 3.7 µM

O=C(Nc1nc2ccc(F)cc2s1)c1cccnc1Nc1ccc(Cl)cc1Cl
GI50 [1]: 1.72 µM | TGI [1]: 3.81 µM | GI50 [2]: 1.93 µM | TGI [2]: 9.26 µM | GI50 [3]: 2.67 µM | TGI [3]: 12.4 µM | GI50 [4]: 1.57 µM | TGI [4]: > 44.5 µM | GI50 [5]: 2.21 µM | TGI [5]: 9.45 µM | GI50 [6]: 1.49 µM | TGI [6]: 9.07 µM | GI50 [7]: 0.753 µM | TGI [7]: 7.73 µM | GI50 [8]: 2.21 µM | TGI [8]: > 24.4 µM
